Source: US4001409A, “Injectable formulations of 7-[D-α-amino-α-(p-hydroxyphenyl)acetamido]-3-(1,2,3-triazol- 5-ylthiomethyl)-3-cephem-4-carboxylic acid” (priority 1975, dated 1977)
Values after ≈ are worked out from the molar mass of the structure shown. Values joined by “and” are separate entries in the source; they are usually repeats but may differ in a detail not shown here. Equal values may be shown once. Where a name gives a salt, the structure may show the parent alone. Read-outs that look alike come from different tables or passages of the source.

What was measured:
S. aureus Smith A9537 = experiment: Minimum Inhibitory Concentration, tube dilution; format: cell-based; settings: Staphylococcus aureus, at 10^-^4 dilution, overnight, 37° C.
E. coli Juhl A15119 = experiment: Minimum Inhibitory Concentration, tube dilution; settings: Escherichia coli, JUHLA15119
Ser. marcescens A20019 = experiment: Minimum Inhibitory Concentration, tube dilution; settings: Serratia marcescens
Ent. cloacae A9656 = experiment: Minimum Inhibitory Concentration, tube dilution; settings: Enterobacter cloacae
K. pneumoniae A15130 = experiment: Minimum Inhibitory Concentration, tube dilution; settings: Klebsiella pneumoniae
Sal. enteritidis A9531 = experiment: Minimum Inhibitory Concentration, tube dilution; format: cell-based; settings: Salmonella enterica
Str. pyogenes A9604 = experiment: Minimum Inhibitory Concentration, tube dilution; format: cell-based; settings: Streptococcus pyogenes
From the text: *50% Nutrient Broth - 45% Antibiotic Assay Broth

Ent. cloacae A9659 = experiment: Minimum Inhibitory Concentration, tube dilution; settings: Enterobacter cloacae
Pr. mirabilis A9900 = experiment: Minimum Inhibitory Concentration, tube dilution; settings: Proteus mirabilis
[1] = system: S. aureus meth.-resist. A15097; experiment: Minimum Inhibitory Concentration, tube dilution; format: cell-based; settings: Staphylococcus aureus
S. aureus BX1633-2 A9606 = experiment: Minimum Inhibitory Concentration, tube dilution; format: cell-based; settings: Staphylococcus aureus
Ent. cloacae A9657 = experiment: Minimum Inhibitory Concentration, tube dilution; settings: Enterobacter cloacae
E. coli A9675 = experiment: Minimum Inhibitory Concentration, tube dilution; format: cell-based; settings: Escherichia coli
K. pneumoniae A9977 = experiment: Minimum Inhibitory Concentration, tube dilution; settings: Klebsiella pneumoniae
D. pneumoniae A9585 = experiment: Minimum Inhibitory Concentration, tube dilution; settings: Streptococcus pneumoniae
Pr. morganii A15153 = experiment: Minimum Inhibitory Concentration, tube dilution; settings: Morganella morganii
[2] = known forms; cannot be administered intravenously; cited from earlier work
[3] = Blood levels in mice after intramuscular administration; settings: mouse, im, 10 mg/kg
[4] = Blood levels in mice after oral administration; settings: mouse, 100 mg/kg
Ps. aeruginosa A9843A = experiment: microbe, parasite or virus in culture; settings: Pseudomonas aeruginosa
vein and muscle = settings: in vivo
Heat stability of solids = format: physicochemical; settings: for Stability (loss): 1 month at 56° C., 43800 min; for Heat stability (loss): Procedure D
[5] = system: Gram-positive and Gram-negative organisms; settings: oral and parenteral; cited from earlier work
[6] = Stability of aqueous solutions; format: physicochemical; settings: alkaline pH, i.e. pH~7.0 or higher
From the text: A. Stability of Aqueous Solutions of Amorphous
Monohydrate and Sodium Levulinate Mixture at […]

physchem = settings: water
pH of solution = format: physicochemical
[7] = Solubility in water / concentration of true solutions
[8] = +5% serum, 50% Nutrient Broth - 45% Antibiotic Assay Broth, overnight, 37° C., read-out: M.I.C.
[9] = BX16332A9606, at 10^-^2 dil'n, overnight, 37° C.
[10] = at 10^-^4 dilution, overnight, 37° C., read-out: M.I.C.

## CC1=C(C(=O)O)N2C(=O)[C@@H](NC(=O)[C@H](N)c3ccccc3)[C@H]2SC1 [Cephalexin]
S. aureus Smith A9537; SMITHA9537, +50% serum, read-out: M.I.C.
  MIC: 2 µg/mL (≈ 5.76 µM)
S. aureus Smith A9537; SMITHA9537, read-out: M.I.C.
  MIC: 1 µg/mL (≈ 2.88 µM)
E. coli Juhl A15119
  MIC: 8 µg/mL (≈ 23 µM)
Ser. marcescens A20019
  MIC: > 125 µg/mL
Ent. cloacae A9656
  MIC: > 125 µg/mL
K. pneumoniae A15130
  MIC: 8 µg/mL (≈ 23 µM)
Sal. enteritidis A9531
  MIC: 4 µg/mL (≈ 11.5 µM)
Str. pyogenes A9604
  MIC: 0.5 µg/mL (≈ 1.44 µM)
Ent. cloacae A9659
  MIC: > 125 µg/mL
Pr. mirabilis A9900
  MIC: 4 µg/mL (≈ 11.5 µM)
[1]; at 10^-^3 dil'n, 37° C
  MIC: 16 µg/mL (≈ 46.1 µM)
[1]; at 10^-^3 dil'n, 28° C, read-out: M.I.C.
  MIC: 32 µg/mL (≈ 92.1 µM)
S. aureus BX1633-2 A9606; BX16332A9606, at 10^-^3 dil'n, overnight, 37° C., read-out: M.I.C.
  MIC: 2 µg/mL (≈ 5.76 µM)
Ent. cloacae A9657
  MIC: 4 µg/mL (≈ 11.5 µM)
E. coli A9675
  MIC: 16 µg/mL (≈ 46.1 µM)
K. pneumoniae A9977
  MIC: 4 µg/mL (≈ 11.5 µM)
D. pneumoniae A9585
  MIC: 1 µg/mL (≈ 2.88 µM)

## N[C@@H](C(=O)NC1C(=O)N2C(C(=O)O)=C(CSc3cnn[nH]3)CSC12)c1ccc(O)cc1 (stereo partly drawn) [Cephalosporin 1,2-propylene glycolate, 7-[D-α-amino-α-(p-hydroxyphenyl)acetamido]-3-(1,2,3-triazol-5-ylthiomethyl)-3-cephem-4-carboxylic acid 1,2-propylene glycolate]
S. aureus Smith A9537; SMITHA9537, +50% serum
  MIC: 2 µg/mL (≈ 4.32 µM)
S. aureus Smith A9537; SMITHA9537, read-out: M.I.C.
  MIC: 0.25 µg/mL (≈ 0.541 µM)
E. coli Juhl A15119
  MIC: 1 µg/mL (≈ 2.16 µM)
Pr. morganii A15153
  MIC: 32 µg/mL (≈ 69.2 µM)
[2]
  solubility in water: relatively low solubility in water
Ser. marcescens A20019
  MIC: > 125 µg/mL
[3]
  concentration at 0.5 h: 17400 ng/mL
  concentration at 1 h: 12300 ng/mL
  concentration at 1.5 h: 9000 ng/mL
Ent. cloacae A9656
  MIC: > 125 µg/mL
K. pneumoniae A15130
  MIC: 2 µg/mL (≈ 4.32 µM)
Sal. enteritidis A9531
  MIC: 0.5 µg/mL (≈ 1.08 µM)
Bio-assay
  Bio-assay: 880-890 units/mg.
Str. pyogenes A9604; [8]
  MIC: 0.03 µg/mL (≈ 0.0649 µM)
Ent. cloacae A9659
  MIC: 32 µg/mL (≈ 69.2 µM)
Pr. mirabilis A9900
  MIC: 0.5 µg/mL (≈ 1.08 µM)
S. aureus BX1633-2 A9606; [9]
  MIC: 2 µg/mL (≈ 4.32 µM)
S. aureus BX1633-2 A9606; BX16332A9606, at 10^-^3 dil'n, overnight, 37° C.
  MIC: 0.5 µg/mL (≈ 1.08 µM)
Ent. cloacae A9657
  MIC: 1 µg/mL (≈ 2.16 µM)
[4]
  concentration at 1 h: 44700 ng/mL
  concentration at 2 h: 26600 ng/mL
  concentration at 3.5 h: 9700 ng/mL
  concentration at 9.5 h: 45800 ng/mL
E. coli A9675; [10]
  MIC: 4 µg/mL (≈ 8.65 µM)
Ps. aeruginosa A9843A
  MIC: > 125 µg/mL
K. pneumoniae A9977
  MIC: 1 µg/mL (≈ 2.16 µM)
D. pneumoniae A9585
  MIC: 0.13 µg/mL (≈ 0.281 µM)

## CC(=O)OCC1=C(C(=O)O)N2C(=O)[C@@H](NC(=O)Cc3cccs3)[C@H]2SC1 [Cephalothin]
S. aureus Smith A9537; SMITHA9537, +50% serum
  MIC: 0.5 µg/mL (≈ 1.26 µM)
E. coli Juhl A15119
  MIC: 8 µg/mL (≈ 20.2 µM)
Pr. morganii A15153
  MIC: > 125 µg/mL
Ser. marcescens A20019
  MIC: > 125 µg/mL
Ent. cloacae A9656
  MIC: > 125 µg/mL
K. pneumoniae A15130
  MIC: 16 µg/mL (≈ 40.4 µM)
Sal. enteritidis A9531; [10]
  MIC: 0.06 µg/mL (≈ 0.151 µM)
Str. pyogenes A9604; [8]
  MIC: 0.06 µg/mL (≈ 0.151 µM)
Ent. cloacae A9659
  MIC: > 125 µg/mL
Pr. mirabilis A9900
  MIC: 1 µg/mL (≈ 2.52 µM)
[1]
  MIC: 4 µg/mL (≈ 10.1 µM)
[1]; at 10^-^3 dil'n, 37° C
  MIC: 1 µg/mL (≈ 2.52 µM)
S. aureus BX1633-2 A9606; BX16332A9606
  MIC: 0.25 µg/mL (≈ 0.631 µM)
S. aureus BX1633-2 A9606; [9]
  MIC: 0.25 µg/mL (≈ 0.631 µM)
Ent. cloacae A9657
  MIC: 2 µg/mL (≈ 5.04 µM)
E. coli A9675
  MIC: 32 µg/mL (≈ 80.7 µM)
Ps. aeruginosa A9843A
  MIC: > 125 µg/mL
K. pneumoniae A9977
  MIC: 2 µg/mL (≈ 5.04 µM)

## N[C@@H](C(=O)NC1C(=O)N2C(C(=O)O)=C(CSc3cnn[nH]3)CSC12)c1ccc(O)cc1 (stereo partly drawn) [amorphous mono-hydrochloride, 7[D-α-amino-α-(p-hydroxyphenyl)acetamido]-3-(1,2,3-triazol-5-ylthiomethyl)-3-cephem-4-carboxylic acid amorphous mono-hydrochloride]
Vein and muscle
  venous irritation and muscle damage: significant venous irritation and muscle damage
Bio-assay; mono-hydrochloride
  Bio-assay: 900 µg/mg and 820 to 850 µg/mg
Heat stability of solids; Procedure Da
  Stability (loss): Less than 10%
Heat stability of solids; Procedure Db
  Stability (loss): Less than 10%
Heat stability of solids; 56° C., 4 weeks, 40320 min
  Heat stability (loss): 1-6%
Heat stability of solids; 100° C., 24 hours
  Heat stability (loss): 7-14%
Heat stability of solids; 100° C., 48 hours
  Heat stability (loss): 10-15%

## N[C@@H](C(=O)NC1C(=O)N2C(C(=O)O)=C(CSc3cnn[nH]3)CSC12)c1ccc(O)cc1 (stereo partly drawn) [amorphous monohydrate, 7-[D-α-amino-α-(p-hydroxyphenyl)acetamido]-3-(1,2,3-triazol-5-ylthiomethyl)-3-cephem-4-carboxylic acid amorphous monohydrate]
Bio-assay; monohydrate
  Bio-assay: 900-935 units/mg.

## N[C@@H](C(=O)NC1C(=O)N2C(C(=O)O)=C(CSc3cnn[nH]3)CS[C@H]12)c1ccc(O)cc1 (stereo partly drawn) [compound I, 7-[D-α-amino-α-(p-hydroxyphenyl)acetamido]-3-(1,2,3-triazol-5-ylthiomethyl)-3-cephem-4-carboxylic acid]
[2]
  solubility in water: relatively low solubility in water
[5]
  therapeutic effectiveness against infections: therapeutically effective against infections caused by both Gram-positive and Gram-negative organisms
[6]
  splitting off of the triazole moiety at the 3-position: found to split off rapidly at alkaline pH

## CC(=O)CCC(=O)[O-].[Na+] [sodium levulinate]
physchem
  solubility: > 300 mg/mL
pH of solution
  pH: 6.5-8.0

## CC(=O)C(=O)[O-].[Na+] [sodium pyruvate]
[7]
  solubility: > 500 mg/mL
pH of solution
  pH: 6.5-8.0
